Laboratory results taken from patent US5552422A, “Aryl substituted 5,5 fused aromatic nitrogen compounds as anti-inflammatory agents” (Merck Frosst Canada, Inc., priority 1995, dated 1996).

Experiments:
Cox-2 = biological target: T1, Cox-2 (Homo sapiens, UniProt P35354); assay: Human whole blood assay, Cox-2 (LPS-induced PGE2 production); assay type: cell-based; conditions: PGE2 after LPS induction, 24 hours
T1 construct: incubation of human whole blood with LPS (lipopoly saccharide), which induces Cox-2; endogenous in cells
T1 sequence (P35354 18-604): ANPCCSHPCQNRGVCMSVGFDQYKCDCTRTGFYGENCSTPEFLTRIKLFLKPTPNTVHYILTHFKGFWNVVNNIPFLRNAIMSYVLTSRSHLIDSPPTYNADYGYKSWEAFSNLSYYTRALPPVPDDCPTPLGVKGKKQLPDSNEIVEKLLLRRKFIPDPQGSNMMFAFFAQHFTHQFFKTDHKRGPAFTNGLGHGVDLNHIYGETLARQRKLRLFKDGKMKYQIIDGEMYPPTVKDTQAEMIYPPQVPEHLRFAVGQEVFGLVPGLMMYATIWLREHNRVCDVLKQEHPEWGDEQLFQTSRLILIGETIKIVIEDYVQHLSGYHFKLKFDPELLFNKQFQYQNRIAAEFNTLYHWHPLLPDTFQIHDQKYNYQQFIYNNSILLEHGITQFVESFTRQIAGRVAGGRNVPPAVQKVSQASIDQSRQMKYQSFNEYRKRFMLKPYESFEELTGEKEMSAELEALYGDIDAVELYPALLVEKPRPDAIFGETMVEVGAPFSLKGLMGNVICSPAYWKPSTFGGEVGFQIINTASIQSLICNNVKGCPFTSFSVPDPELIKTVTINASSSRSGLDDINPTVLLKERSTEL
Description: (§1) Immediately following blood clotting, platelets are activated through a thrombin-mediated mechanism.
Fresh blood was collected in heparinized tubes by venipuncture from both male and female volunteers. The subjects had no apparent inflammatory conditions and had not taken any NSAIDs for at least 7 days prior to blood collection. Plasma was immediately obtained from a 2 mL blood aliquot to use as blank (basal levels of PGE2).
(§2) In the assay, inhibition is determined by measuring the amount of prostaglandin E2 (PGE2) synthesized in the presence of arachidonic acid, cyclooxygenase-1 or cyclooxygenase-2 and a putative inhibitor.

Cox-1 = biological target: T2, Cox-1 (Homo sapiens, UniProt P23219); assay: Human whole blood assay, Cox-1 (clotting-induced TxB2 production); assay type: cell-based; conditions: TxB2 following blood clotting
T2 construct: platelets in whole blood contain a large amount of the Cox-1 enzyme; endogenous in cells; host or cells: platelets in fresh human whole blood (clotting)
Description: as §1
Aliquots of 500 μL were immediately transferred to siliconized microcentrifuge tubes preloaded with 2 μL of either DMSO or a test compound at final concentrations varying from 10 nM to 30 μM. The tubes were vortexed and incubated at 37° C. for 1 hour to allow blood to clot.
as §2

rat paw edema = conditions: po, carrageenan paw edema, 3 hr
Description: Male Sprague-Dawley rats (150-200 g) were fasted overnight and were given po either vehicle (1% methocel or 5% Tween 80) or a test compound. One hr later, a line was drawn using a permanent marker at the level above the ankle in one hind paw to define the area of the paw to be monitored. The paw volume (V0) was measured using a plethysmometer (Ugo-Basile, Italy) based on the principle of water displacement. The animals were then injected subplantarly with 50 μl of 1% carrageenan solution in saline (FMC Corp, Maine) into the paw using an insulin syringe with a 25-gauge needle (i.e., 500 μg carrageenan per paw). Three hr later, the paw volume (V3) was measured and the increases in paw volume (V3 -V0) were calculated. The animals were sacrificed by CO2 aphyxiation and the absence or presence of stomach lesions scored. Data were compared with the vehicle-control values and percent inhibition calculated. […] All treatment groups were coded to eliminate observer bias.

T2 sequence (P23219 24-599): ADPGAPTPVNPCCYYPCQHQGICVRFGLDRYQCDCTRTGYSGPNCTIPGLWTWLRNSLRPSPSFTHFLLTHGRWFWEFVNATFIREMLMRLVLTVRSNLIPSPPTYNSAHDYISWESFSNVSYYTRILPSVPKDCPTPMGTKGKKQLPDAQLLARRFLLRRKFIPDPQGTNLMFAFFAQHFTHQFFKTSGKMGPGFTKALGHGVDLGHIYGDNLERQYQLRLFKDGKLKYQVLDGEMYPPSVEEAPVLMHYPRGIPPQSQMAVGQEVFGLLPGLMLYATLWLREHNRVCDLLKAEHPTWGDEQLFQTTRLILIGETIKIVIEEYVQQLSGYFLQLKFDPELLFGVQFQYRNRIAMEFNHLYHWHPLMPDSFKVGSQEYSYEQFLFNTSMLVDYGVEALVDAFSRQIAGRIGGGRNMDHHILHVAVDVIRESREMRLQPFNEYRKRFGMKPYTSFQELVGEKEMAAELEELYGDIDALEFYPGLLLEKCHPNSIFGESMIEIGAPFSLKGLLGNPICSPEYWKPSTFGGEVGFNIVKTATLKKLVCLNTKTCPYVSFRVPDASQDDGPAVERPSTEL

SMILES | IC50 (Cox-2) [nM] | IC50 (Cox-1) [nM] | ED50 (rat paw edema) [mg/kg]
CS(=O)(=O)c1ccc(-c2c(-c3ccccc3)nc3sccn23)cc1 [Example 1, 5-(4-(Methylsulfonyl)phenyl)-6-phenylimidazo[2,1-b]thiazole] | 330 | > 30000 | –
COc1ccc2c(c1)c(CC(=O)O)c(C)n2C(=O)c1ccc(Cl)cc1 [Indomethacin, indomethacin] | – | – | 2
